# Assay results: patent publication US20240368096A1 (Enanta Pharmaceuticals, Inc., priority 2022, published 2024)
# System: HBV
# Assay: HBV infection in HepG2-NTCP cells (HBeAg AlphaLISA in supernatants)
# Format: cell-based
# Conditions: Hepatitis B virus, 192 h; HBV infection of HepG2-NTCP cells; HBeAg in supernatants at day 8 post infection; read-out: Cellular EC50
# How it was run: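 Readout was day-8 supernatant HBeAg by AlphaLISA, with EC50 set against DMSO controls and binned A<0.1 μM, B 0.1-1 μM, C>1 μM. Compounds were added 2 h before HBV (2000 GE/cell, 4% PEG, 0.5% DMSO) to HepG2-NTCP A3 cells; from day 1 medium held 2.5% DMSO.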
row,EC50 [nM],Structure (SMILES)
1,> 1000,CC(C)C[C@@H]1CN(c2ccccc2)c2cc(OCC34CCCN3CCC4)c(-c3ccc(F)c(C(=O)O)c3)cc2S(=O)(=O)N1C [Example 450]
2,> 1000,CC(C)C[C@@H]1CN(c2ccccc2)c2cc(OCCN(C)C)c(-c3ccc(F)c(C(=O)O)c3)cc2S(=O)(=O)N1C [Example 451]
3,100 to 1000,CC(C)C[C@@H]1CN(c2ccccc2)c2cc(OC(C)(C)C(F)(F)F)c(-c3ccc(Cl)c(C(=O)O)c3)cc2S(=O)(=O)N1C [Example 452]
4,< 100,CC(C)C[C@@H]1CN(c2ccccc2)c2cc(OCC(F)(F)F)c(-c3ccc(F)c(C(=O)O)c3)cc2S(=O)(=O)N1C [Example 453]
5,< 100,CC(C)C[C@@H]1CN(c2ccccc2)c2cc(OC3(C)CCCC3)c(-c3ccc(Cl)c(C(=O)O)c3)cc2S(=O)(=O)N1C [Example 454]
6,100 to 1000,CC(C)C[C@@H]1CN(c2ccccc2)c2cc(OC(C)(C)c3ccccc3)c(-c3ccc(Cl)c(C(=O)O)c3)cc2S(=O)(=O)N1C [Example 455]
7,100 to 1000,CC(C)C[C@@H]1CN(c2ccccc2)c2cc(OCc3cccnc3)c(-c3ccc(F)c(C(=O)O)c3)cc2S(=O)(=O)N1C [Example 456]
8,100 to 1000,Cc1nnc(COc2cc3c(cc2-c2ccc(F)c(C(=O)O)c2)S(=O)(=O)N(C)[C@H](CC(C)C)CN3c2ccccc2)o1 [Example 457]
9,< 100,CC(C)C[C@@H]1CN(c2ccccc2)c2cc(OCc3cncs3)c(-c3ccc(F)c(C(=O)O)c3)cc2S(=O)(=O)N1C [Example 458]
10,< 100,CC(C)C[C@@H]1CN(c2ccccc2)c2cc(OCc3ccccn3)c(-c3ccc(F)c(C(=O)O)c3)cc2S(=O)(=O)N1C [Example 459]
11,< 100,CC(C)C[C@@H]1CN(c2ccccc2)c2cc(OCCc3cscn3)c(-c3ccc(F)c(C(=O)O)c3)cc2S(=O)(=O)N1C [Example 460]
12,< 100,CC(C)C[C@@H]1CN(c2ccccc2)c2cc(OCCc3ccoc3)c(-c3ccc(F)c(C(=O)O)c3)cc2S(=O)(=O)N1C [Example 461]
13,< 100,CC(C)C[C@@H]1CN(c2ccccc2)c2cc(OCc3cocn3)c(-c3ccc(F)c(C(=O)O)c3)cc2S(=O)(=O)N1C [Example 462]
14,< 100,CN1[C@H](C2CCC2)CN(c2ccccc2)c2cc(Oc3ccccc3F)c(-c3ccc(F)c(C(=O)O)c3)cc2S1(=O)=O [Example 463]
15,100 to 1000,CN1[C@H](C2CCC2)CN(c2ccccc2)c2cc(OCC(F)(F)F)c(-c3ccc(F)c(C(=O)O)c3)cc2S1(=O)=O [Example 464]
16,100 to 1000,CN1[C@H](C2CCC2)CN(c2ccccc2)c2cc(OC(C)(C)C)c(-c3ccc(F)c(C(=O)O)c3)cc2S1(=O)=O [Example 465]
17,100 to 1000,"CC(C)C[C@@H]1CN(C2CC(F)(F)C2)c2cc(Oc3ccccc3F)c(-c3ccc(F)c(C(=O)O)c3)cc2S(=O)(=O)N1C [Example 466, (R)-5-(5-(3,3-difluorocyclobutyl)-7-(2-fluorophenoxy)-3-isobutyl-2-methyl-1,1-dioxido-2,3,4,5-tetrahydrobenzo[f][1,2,5]thiadiazepin-8-yl)-2-fluorobenzoic acid]"
18,100 to 1000,CC(C)C[C@@H]1CN(C2CC3(CCC3)C2)c2cc(Oc3ccccc3F)c(-c3ccc(F)c(C(=O)O)c3)cc2S(=O)(=O)N1C [Example 467]
19,100 to 1000,CC(C)C[C@@H]1CN(C(C)C)c2cc(Oc3ccccc3F)c(-c3ccc(F)c(C(=O)O)c3)cc2S(=O)(=O)N1C [Example 468]
20,100 to 1000,CC(C)C[C@@H]1CN(C23CC(C2)C3)c2cc(Oc3ccccc3F)c(-c3ccc(F)c(C(=O)O)c3)cc2S(=O)(=O)N1C [Example 469]
21,100 to 1000,CC(C)C[C@@H]1CN([C@@H]2CCOC2)c2cc(Oc3ccccc3F)c(-c3ccc(F)c(C(=O)O)c3)cc2S(=O)(=O)N1C [Example 470]
22,100 to 1000,CC(C)C[C@@H]1CN(C2CC2)c2cc(Oc3ccccc3F)c(-c3ccc(F)c(C(=O)O)c3)cc2S(=O)(=O)N1C [Example 471]
23,100 to 1000,CO[C@H]1C[C@H](N2C[C@@H](CC(C)C)N(C)S(=O)(=O)c3cc(-c4ccc(F)c(C(=O)O)c4)c(Oc4ccccc4F)cc32)C1 [Example 472]
24,100 to 1000,CO[C@H]1C[C@@H](N2C[C@@H](CC(C)C)N(C)S(=O)(=O)c3cc(-c4ccc(F)c(C(=O)O)c4)c(Oc4ccccc4F)cc32)C1 [Example 473]
25,100 to 1000,CC(C)C[C@@H]1CN([C@H]2CCOC2)c2cc(Oc3ccccc3F)c(-c3ccc(F)c(C(=O)O)c3)cc2S(=O)(=O)N1C [Example 474]
26,100 to 1000,"CC(C)C[C@@H]1CN(CC(C)C)c2cc(Oc3ccc(F)cc3)c(-c3ccc(F)c(C(=O)O)c3)cc2S(=O)(=O)N1C [Example 475, (R)-2-fluoro-5-(7-(4-fluorophenoxy)-3,5-diisobutyl-2-methyl-1,1-dioxido-2,3,4,5-tetrahydrobenzo[f][1,2,5]thiadiazepin-8-yl)benzoic acid]"

row,EC50 [nM],Structure (SMILES)
1,100 to 1000,CN1[C@H](C2CCCCC2)CNc2cc(OCC(F)(F)F)c(-c3ccc(Cl)c(C(=O)O)c3)cc2S1(=O)=O [Example 477]
2,< 100,"COCCOc1cc2c(cc1-c1ccc(NC(=O)OCc3ccccc3)c(C(=O)O)c1)S(=O)(=O)N(C)[C@H](C1CCCCC1)CN2c1ccccc1 [Example 478, (R)-2-(((benzyloxy)carbonyl)amino)-5-(3-cyclohexyl-7-(2-methoxyethoxy)-2-methyl-1,1-dioxido-5-phenyl-2,3,4,5-tetrahydrobenzo[f][1,2,5]thiadiazepin-8-yl)benzoic acid]"
3,< 100,"COCCOC(=O)Nc1ccc(-c2cc3c(cc2OCCOC)N(c2ccccc2)C[C@@H](C2CCCCC2)N(C)S3(=O)=O)cc1C(=O)O [Example 479, (R)-5-(3-cyclohexyl-7-(2-methoxyethoxy)-2-methyl-1,1-dioxido-5-phenyl-2,3,4,5-tetrahydrobenzo[f][1,2,5]thiadiazepin-8-yl)-2-(((2-methoxyethoxy)carbonyl)amino)benzoic acid]"
4,< 100,CN1[C@H](C2CCCCC2)CN(c2ccccc2)c2cc(OCC(F)(F)F)c(-c3ccc(NC(=O)OCc4ccccc4)c(C(=O)O)c3)cc2S1(=O)=O [Example 480]
5,< 100,CN1[C@H](C2CCCCC2)CN(c2ccccc2)c2cc(OCc3ccsc3)c(-c3ccc(NC(=O)OCc4ccccc4)c(C(=O)O)c3)cc2S1(=O)=O [Example 481]
6,< 100,CN1[C@H](C2CCCCC2)CN(c2ccccc2)c2cc(OC3CCC3)c(-c3ccc(NC(=O)OC4CCC4)c(C(=O)O)c3)cc2S1(=O)=O [Example 482]
7,100 to 1000,CN1[C@H](C2CCCCC2)CN(c2ccccc2)c2cc(OC3CC4(CCC4)C3)c(-c3cc(F)c(C(=O)O)s3)cc2S1(=O)=O [Example 484]
8,< 100,CCCCCCCOc1cc2c(cc1-c1cc(F)c(C(=O)O)s1)S(=O)(=O)N(C)[C@H](C1CCCCC1)CN2c1ccccc1 [Example 485]
9,< 100,CN1[C@H](C2CCCCC2)CN(c2ccccc2)c2cc(OCc3csc(Cl)c3)c(-c3cc(F)c(C(=O)O)s3)cc2S1(=O)=O [Example 487]
10,< 100,CN1[C@H](C2CCCCC2)CN(c2ccccc2)c2cc(OCc3cscc3F)c(-c3cc(F)c(C(=O)O)s3)cc2S1(=O)=O [Example 488]
11,< 100,CN1[C@H](C2CCCCC2)CN(c2ccccc2)c2cc(OCc3ccsc3Cl)c(-c3cc(F)c(C(=O)O)s3)cc2S1(=O)=O [Example 489]
12,< 100,CCCCC[C@H](C)Oc1cc2c(cc1-c1cc(F)c(C(=O)O)s1)S(=O)(=O)N(C)[C@H](C1CCCCC1)CN2c1ccccc1 [Example 490]
13,100 to 1000,CCCCC[C@@H](C)Oc1cc2c(cc1-c1cc(F)c(C(=O)O)s1)S(=O)(=O)N(C)[C@H](C1CCCCC1)CN2c1ccccc1 [Example 491]
14,< 100,Cc1cc(COc2cc3c(cc2-c2cc(F)c(C(=O)O)s2)S(=O)(=O)N(C)[C@H](C2CCCCC2)CN3c2ccccc2)c(C)s1 [Example 492]
15,100 to 1000,Cc1cc(COc2cc3c(cc2-c2cc(F)c(C(=O)O)s2)S(=O)(=O)N(C)[C@H](C2CCCCC2)CN3c2ccccc2)cs1 [Example 493]
16,< 100,CN1[C@H](C2CCCCC2)CN(c2ccccc2)c2cc(OCc3cscc3Cl)c(-c3cc(F)c(C(=O)O)s3)cc2S1(=O)=O [Example 494]
17,< 100,CN1[C@H](C2CCCCC2)CN(c2ccccc2)c2cc(OCCOC(C)(C)C)c(-c3cc(F)c(C(=O)O)s3)cc2S1(=O)=O [Example 495]
18,< 100,CN1[C@H](C2CCCCC2)CN(c2ccccc2)c2cc(OCCOC3CC3)c(-c3cc(F)c(C(=O)O)s3)cc2S1(=O)=O [Example 496]
19,< 100,CC(C)OCCOc1cc2c(cc1-c1cc(F)c(C(=O)O)s1)S(=O)(=O)N(C)[C@H](C1CCCCC1)CN2c1ccccc1 [Example 497]
20,< 100,COCCOCCOc1cc2c(cc1-c1cc(F)c(C(=O)O)s1)S(=O)(=O)N(C)[C@H](C1CCCCC1)CN2c1ccccc1 [Example 498]
21,< 100,COCCOc1cc2c(cc1-c1cc(C)c(C(=O)O)s1)S(=O)(=O)N(C)[C@H](C1CCCCC1)CN2c1ccccc1 [Example 499]
22,< 100,Cc1nc(COc2cc3c(cc2-c2cc(F)c(C(=O)O)s2)S(=O)(=O)N(C)[C@H](C2CCCCC2)CN3c2ccccc2)sc1C [Example 500]
23,< 100,Cc1csc(COc2cc3c(cc2-c2cc(F)c(C(=O)O)s2)S(=O)(=O)N(C)[C@H](C2CCCCC2)CN3c2ccccc2)n1 [Example 501]
24,100 to 1000,CC(Oc1cc2c(cc1-c1cc(F)c(C(=O)O)s1)S(=O)(=O)N(C)[C@H](C1CCCCC1)CN2c1ccccc1)c1nccs1 (stereo partly shown) [Example 502]
25,< 100,CN1[C@H](C2CCCCC2)CN(c2ccccc2)c2cc(OCC34CC(C#N)(CO3)C4)c(-c3cc(F)c(C(=O)O)s3)cc2S1(=O)=O [Example 504]

row,Structure (SMILES),EC50 [nM]
1,"CN1[C@H](C2CCCCC2)CN(c2ccccc2)c2cc(OC3CC(C)(C)C3)c(-c3cc(F)c(C(=O)O)s3)cc2S1(=O)=O [Example 483, (R)-5-(3-cyclohexyl-7-(3,3-dimethylcyclobutoxy)-2-methyl-1,1-dioxido-5-phenyl-2,3,4,5-tetrahydrobenzo[f][1,2,5]thiadiazepin-8-yl)-3-fluorothiophene-2-carboxylic acid]",< 100
